# Laboratory results as given in patent publication US20230078811A1, “USE OF DISTILLABLE VOLATILE SALT FOR THE PRETREATMENT OF BIOMASS” (The Regents of the University of California, priority 2020, published 2023).
# Experiment: Distillation efficiency: pretreating solvent left in the solids after pretreatment and distillation
# Type: physicochemical
# Conditions: pretreat 100° C. 1 hour; distill 100° C. 1 hour, full vacuum; 40% solid loading; FIG. 4
# Experimental: Distillation efficiency is measured using the following procedure: pretreat at 100° C. for 1 hour; distill at 100° C. for 1 hours in full vacuum, 40% solid loading (SL) with ethanolamine, enzyme saccharification (5%, 10%, 20% SL), and 10 mg/g biomass of CTEC/HTEC 9/1 cellulase. Distillation efficiency can be measured by determining the concentration of pretreating solvent in the solids after pretreatment.
smiles,measurement,value
NCCO [ethanolamine],removal of the solvent by distillation,about 98.7%
